The subject of this assay is HMVEC. In words: human microvascular endothelial (HMVEC) migration assay. Conditions: Inhibition of HMVEC migration, activators 15 ng/mL bFGF/VEGF, 4 hours at 37 °C, compared to a positive control; for inhibition at 0.0001 µM / inhibition at 0.001 µM: Homo sapiens; for inhibition at 0.001 µM: 1 nM. The class given is cell-based. The protocol:
The human microvascular endothelial (HMVEC) migration assay was run according to the procedure of S. S. Tolsma, O. V. Volpert, D. J. Good, W. F. Frazier, P. J. Polverini and N. Bouck, J. Cell Biol. 122, 497-511 (1993).
The HMVEC migration assay was carried out using Human Microvascular Endothelial Cells-Dermal (single donor) and Human Microvascular Endothelial Cells, (neonatal). The BCE or HMVEC cells were starved overnight in DME containing 0.01% bovine serum albumin (BSA). Cells were then harvested with trypsin and resuspended in DME with 0.01 % BSA at a concentration of 1.5 X 10^6 cells per mL. Cells were added to the bottom of a 48 well modified Boyden chamber (Nucleopore Corporation, Cabin John, MD). The chamber was assembled and inverted, and cells were allowed to attach for 2 hours at 37 °C to polycarbonate chemotaxis membranes (5 µm pore size) that had been soaked in 0.01 % gelatin overnight and dried. The chamber was then reinverted, and test substances (total volume of 50 µL), including activators, 15 ng/mL bFGF/VEGF, were added to the wells of the upper chamber. The apparatus was incubated for 4 hours at 37 °C. Membranes were recovered, fixed and stained (Diff Quick, Fisher Scientific) and the number of cells that had migrated to the upper chamber per 3 high power fields counted. Background migration to DME + […] was subtracted and the data reported as the number of cells migrated per 10 high power fields (400X) or, when results from multiple experiments were combined, as the percent inhibition of migration compared to a positive control.

A word on the inhibition: it is the drop in the measured response relative to a control, in per cent. High values mean a strong effect, low ones a weak effect. `Cc1ccc(C(=O)N2CC[C@@H](NC(=O)N[C@@H](CO)c3ccccc3)C2)cn1` [Example 32, N-[(1R)-2-hydroxy-1-phenylethyl]-N'-{(3R)-1-[(6-methyl-3-pyridinyl)carbonyl]-3-pyrrolidinyl} urea] yielded an inhibition at 0.0001 µM (0.1 nM) of 85%.

`Cc1ccc(C(=O)N2CC[C@@H](NC(=O)N[C@@H](C)c3ccccc3)C2)cn1` [Example 33, N-((3R)-1-[(6-methylpyridin-3-yl)carbonyl]pyrrolidin-3-yl)-N'-[(1S)-1-phenylethyl]urea]: the inhibition at 0.0001 µM (0.1 nM) amounted to 85%.

With `CCCCN(CCCC)C(=O)N[C@@H]1CCN(C(=O)c2ccc(C)nc2Cl)C1` [Example 34, N,N-dibutyl-N'-{(3R)-1-[(2-chloro-6-methylpyridin-3-yl)carbonyl]pyrrolidin-3-yl}urea], at 0.001 µM the inhibition was 50%.

Regarding `COCCN(C(=O)N[C@@H]1CCN(C(=O)c2ccc(C)nc2Cl)C1)C(C)C` [Example 35, N'-{(3R)-1-[(2-chloro-6-methylpyridin-3-yl)carbonyl]pyrrolidin-3-yl}-N-isopropyl-N-(2-methoxyethyl)urea], the inhibition at 0.0001 µM (0.1 nM) came out at 70%.

With `Cc1ccc(C(=O)N2CC[C@@H](NC(=O)N[C@@H](CO)c3ccccc3)C2)c(Cl)n1` [Example 37, N-{(3R)-1-[(2-chloro-6-methylpyridin-3-yl)carbonyl]pynolidin-3-yl}-N'-[(1R)-2-hydroxy-1-phenylethyl]urea], where the note is “0.1 nM”, the “% Inhibition @ 0.1 nM” value is on record as 73%.

For the compound `CCOCCCNC(=O)N[C@@H]1CCN(C(=O)c2ccc(C)nc2Cl)C1` [Example 38, N-{(3R)-1-[(2-chloro-6-methylpyridin-3-yl)carbonyl]pyrrolidin-3-yl}-N'-(3-ethoxypropyl)urea], at 0.0001 µM the inhibition (0.1 nM) was 99%.

Regarding `Cc1ccc(C(=O)N2CC[C@@H](NC(=O)NCCCOC(C)C)C2)c(Cl)n1` [Example 39, N-{(3R)-1-[(2-chloro-6-methylpyridin-3-yl)carbonyl]pyrrolidin-3-yl}-N'-(3-isopropoxypropyl)urea], the inhibition at 0.001 µM amounted to 72%.

Compound `Cc1ccc(C(=O)N2CC[C@@H](NC(=O)NCCCOCC(C)C)C2)c(Cl)n1` [Example 40, N-{(3R)-1-[(2-chloro-6-methylpyridin-3-yl)carbonyl]pyrrolidin-3-yl}-N'-(3-isobutoxypropyl)urea] displayed an inhibition at 0.0001 µM (0.1 nM) of 72%.

For the setting “0.1 nM”, `CSCCCNC(=O)N[C@@H]1CCN(C(=O)c2ccc(C)nc2Cl)C1` [Example 41, N-{(3R)-1-[(2-chloro-6-methylpyridin-3-yl)carbonyl]pyrrolidin-3-yl}-N'-[3-(methylthio)propyl]urea] displayed an inhibition at 0.0001 µM of 87%.

`Cc1ccc(C(=O)N2CC[C@@H](NC(=O)N(Cc3ccccc3)Cc3ccccc3)C2)c(Cl)n1` [Example 43, N,N-dibenzyl-N'-{(3R)-1-[(2-chloro-6-methylpyridin-3-yl)carbonyl]pyrrolidin-3-yl}urea] showed an inhibition at 0.0001 µM (0.1 nM) of 73%.

In turn, `Cc1ccc(C(=O)N2CC[C@@H](NC(=O)N(C)CCc3ccccc3)C2)c(Cl)n1` [Example 44, N'-{(3R)-1-[(2-chloro-6-methylpyridin-3-yl)carbonyl]pyrrolidin-3-yl}-N-methyl-N-(2-phenylethyl)urea] yielded an inhibition at 0.0001 µM (0.1 nM) of 80%.

With `COc1ccc(CCN(C)C(=O)N[C@@H]2CCN(C(=O)c3ccc(C)nc3Cl)C2)cc1OC` [Example 45, N'-{(3R)-1-[(2-chloro-6-methylpyridin-3-yl)carbonyl]pyrrolidin-3-yl}-N-[2-(3,4-dimethoxyphenyl)ethyl]-N-methylurea], the inhibition at 0.0001 µM (0.1 nM) was found to be 82%.

With `Cc1ccc(C(=O)N2CC[C@@H](NC(=O)N3CCC(Cc4ccccc4)CC3)C2)c(Cl)n1` [Example 46, 4-benzyl-N-{(3R)-1-[(2-chloro-6-methylpyridin-3-yl)carbonyl]pyrrolidin-3-yl}piperidine-1-carboxamide], the inhibition at 0.0001 µM (0.1 nM) came out at 99%.

`Cc1ccc(C(=O)N2CC[C@@H](NC(=O)N3CCC(n4c(=O)[nH]c5ccccc54)CC3)C2)c(Cl)n1` [Example 47, N-{(3R)-1-[(2-chloro-6-methylpyridin-3-yl)carbonyl]pyrrolidin-3-yl}-4-(2-oxo-2,3-dihydro-1H-benzimidazol-1-yl)piperidine-1-carboxanude] returned an inhibition at 0.001 µM of 80%.

In turn, `Cc1ccc(C(=O)N2CC[C@@H](NC(=O)N3CCN(c4ccccc4)CC3)C2)c(Cl)n1` [Example 48, N-{(3R)-1-[(2-chloro-6-methylpyridin-3-yl)carbonyl]pyrrolidin-3-yl}-4-phenylpiperazine-1-carboxamide] came in with an inhibition at 0.001 µM of 78%.

Compound `CCN(CC)CCN(C)C(=O)N[C@@H]1CCN(C(=O)c2ccc(C)nc2)C1` [Example 49, N-[2-(diethylamino)ethyl]-N-methyl-N'-{(3R)-1-[(6-methylpyridin-3-yl)carbonyl]pyrrolidin-3-yl}urea] gave an inhibition at 0.0001 µM (0.1 nM) of 65%.

For the compound `CCN(Cc1ccccc1)C(=O)N[C@@H]1CCN(C(=O)c2ccc(C)nc2)C1` [Example 50, N-benzyl-N-ethyl-N'-{(3R)-1-[(6-methylpyridin-3-yl)carbonyl]pyrrolidin-3-yl} urea], the inhibition at 0.0001 µM (0.1 nM) was determined as 76%.

On to `Cc1ccc(C(=O)N2CC[C@@H](NC(=O)N(Cc3ccccc3)C(C)C)C2)cn1` [Example 51, N-benzyl-N-isopropyl-N'-{(3R)-1-[(6-methylpyridin-3-yl)carbonyl]pyrrolidin-3-yl}urea], for which the inhibition at 0.001 µM was 60%.

Consider `CCCCN(Cc1ccccc1)C(=O)N[C@@H]1CCN(C(=O)c2ccc(C)nc2)C1` [Example 52, N-benzyl-N-butyl-N'-{(3R)-1-[(6-methylpyridin-3-yl)carbonyl]pyrrolidin-3-yl}urea], for which at 0.001 µM the inhibition was 80%.

In turn, `Cc1ccc(C(=O)N2CC[C@@H](NC(=O)N(Cc3ccccc3)Cc3ccccc3)C2)cn1` [Example 53, N,N-dibenzyl-N'-{(3R)-1-[(6-methylpyridin-3-yl)carbonyl]pyrrolidin-3-yl} urea] gave an inhibition at 0.0001 µM (0.1 nM) of 78%.

Consider `Cc1ccc(C(=O)N2CC[C@@H](NC(=O)N(CCc3ccccc3)Cc3ccccc3)C2)cn1` [Example 54, N-benzyl-N'-{(3R)-1-[(6-methylpyridin-3-yl)carbonyl]pyrrolidin-3-yl}-N-(2-phenylethyl)urea], for which the inhibition at 0.001 µM came out at 78%.

In turn, `CCN(CC)C(=O)C1CCCN(C(=O)N[C@@H]2CCN(C(=O)c3ccc(C)nc3)C2)C1` (stereo partly drawn) [Example 55, N^3,N^3-diethyl-N^1-{(3R)-1-[(6-methylpyridin-3-yl)carbonyl]pyrrolidin-3-yl}piperidine-1,3-dicarboxamide] showed an inhibition at 0.001 µM of 93%.

`Cc1ccc(C(=O)N2CC[C@@H](NC(=O)N3CCC(n4c(=O)[nH]c5ccccc54)CC3)C2)cn1` [Example 56, N-{(3R)-1-[(6-methylpyridin-3-yl)carbonyl]pyrrolidin-3-yl}-4-(2-oxo-2,3-dihydro-1H-benzimidazol-1-yl)piperidine-1-carboxamide] showed an inhibition at 0.0001 µM (0.1 nM) of 86%.

For the compound `CCN1CCN(C(=O)N[C@@H]2CCN(C(=O)c3ccc(C)nc3)C2)CC1` [Example 57, 4-ethyl-N-{(3R)-1-[(6-methylpyridin-3-yl)carbonyl]pyrrolidin-3-yl}piperazine-1-carboxamide], under “0.1 nM”, at 0.0001 µM the inhibition was 86%.

In the case of `Cc1ccc(C(=O)N2CC[C@@H](NC(=O)N3CCN(Cc4ccccc4)CC3)C2)cn1` [Example 58, 4-benzyl-N-{(3R)-1-[(6-methylpyridin-3-yl)carbonyl]pyrrolidin-3-yl}piperazine-1-carboxamide], 0.0001 µM produced 71% inhibition (0.1 nM).

Where the note is “0.1 nM”, `CCCN(C)C(=O)N[C@@H]1CCN(C(=O)c2ccc(C)nc2)C1` [Example 59, N-methyl-N'-{(3R)-1-[(6-methylpyridin-3-yl)carbonyl]pyrrolidin-3-yl}-N-propylurea] came in with an inhibition at 0.0001 µM of 93%.

Take `Cc1ccc(C(=O)N2CC[C@@H](NC(=O)N(C)CC(C)C)C2)cn1` [Example 60, N-isobutyl-N-methyl-N'-{(3R)-1-[(6-methylpyridin-3-yl)carbonyl]pyrrolidin-3-yl}urea]: at 0.0001 µM the inhibition (0.1 nM) was 67%.

Turning to `Cc1ccc(C(=O)N2CC[C@@H](NC(=O)N(C)CCC(C)C)C2)cn1` [Example 61, N-methyl-N-(3-methylbutyl)-N'-{(3R)-1-[(6-methylpyridin-3-yl)carbonyl]pyrrolidin-3-yl}urea], 0.0001 µM produced 66% inhibition (0.1 nM).

Turning to `C#CCN(C)C(=O)N[C@@H]1CCN(C(=O)c2ccc(C)nc2)C1` [Example 62, N-methyl-N'-{(3R)-1-[(6-methylpyridin-3-yl)carbonyl]pyrrolidin-3-yl}-N-prop-2-ynylurea], the inhibition at 0.0001 µM (0.1 nM) came out at 54%.

With `CCCN(CC)C(=O)N[C@@H]1CCN(C(=O)c2ccc(C)nc2)C1` [Example 63, N-ethyl-N'-{(3R)-1-[(6-methylpyridin-3-yl)carbonyl]pyrrolidin-3-yl}-N-propylurea], testing at 0.0001 µM (0.1 nM) gave an inhibition of 72%.

Regarding `CCCN(C(=O)N[C@@H]1CCN(C(=O)c2ccc(C)nc2)C1)C(C)C` [Example 64, N-isopropyl-N'-{(3R)-1-[(6-methylpyridin-3-yl)carbonyl]pyrrolidin-3-yl}-N-propylurea], at 0.0001 µM the inhibition (0.1 nM) was 70%.
